The text below walks through data of patent US9988380B2, “Quorum sensing inhibitors” (priority 2013, dated 2018).

Molecules are shown by their SMILES.

Test [1] deals with pqsA-gfp(ASV) expression. As to the kind of experiment: Inhibition of the PQS QS system, pqsA-gfp(ASV) reporter in PAO1 wild-type and lasR mutant. The class given is cell-based, P. aeruginosa. How it is done:
Inhibition of the Rhl and PQS QS systems in wild-type PAO1 and PAO1 lasR mutant. Wild-type P. aeruginosa PAO1 strains harboring either the rhlA-gfp(ASV) reporter or the pqsA-gfp(ASV) reporter, and a P. aeruginosa PAO1 lasR mutant harboring either the rhlA-gfp(ASV) reporter or the pqsA-gfp(ASV) reporter were used for this experiment (Refer to FIG. 11 for strain information). Overnight cultures of these four strains were diluted 100-fold in ABTGC media within 96-well microtitre plates to a final volume of 200 μL per well. Each of the five QSIs was added in triplicate to a final concentration of 50 μM. 0.5% DMSO was used as a negative control. The microtitre plate was incubated at 37° C. in a Tecan Infinite 200 Pro plate reader where GFP and OD600 readings were measured at 15 min intervals.
Effect of QSIs on Rhl and Pqs Quorum-Sensing Systems. In order to address the problem of the specificity of present compounds, the five identified QSI compounds were tested to see if they had any effect on the rhl and pqs systems. The five QSIs were tested against a PAO1 wild-type and a PAO1 lasR mutant harboring either the rhlA-gfp (ASV) bioreporter or the pqsA-gfp (ASV) bioreporter. The rhlA system is dependent on the RhlR/I system. By doing so, we were able to determine if a QSI is able to inhibit the other two QS systems (i.e. rhl and pqs) in a lasR-dependent/independent manner (FIG. 8).

Test [2] has as its system LasR-controlled GFP expression in P. aeruginosa PAO1 lasB-gfp(ASV) strain. The experiment in a line: P. aeruginosa QS inhibition assay with lasB-gfp(ASV) reporter strain. The class given is cell-based, Pseudomonas aeruginosa. How it is done:
P. aeruginosa QS inhibition assays. Test compounds were dissolved in 100% DMSO and mixed with ABTGC media, after which they were added to the first column of wells of a 96-well microtitre plate (Nunc) to give a final concentration of 100 μM in a final volume of 200 μl. 100 μL of ABTGC media was then added to the remaining wells in the plate and serial two-fold dilutions of the inhibitors were done by adding 100 μL of the preceding inhibitor-containing well to the subsequent one. The final column was left without inhibitor as a control. Next, an overnight culture of P. aeruginosa lasB-gfp(ASV) strain, grown in LB medium at 37° C. with shaking, was diluted to an optical density (OD) at 600 nm of 0.2, and 100 μl of bacterial suspension was added to each well of the microtitre plate. […] The microtitre plate was incubated at 37° C. in a Tecan Infinite 200 Pro plate reader (Tecan Group Ltd., Männedorf, Switzerland). GFP fluorescence (excitation at 485 nm, emission at 535 nm) and cell density (OD600) measurements were collected at 15 min intervals for at least 14 h. The P. aeruginosa Rhl and Pqs inhibition assays were performed in a similar manner to the LasR inhibition assay.
Inhibition Assay with the P. aeruginosa lasB-gfp(ASV) strain. In the preliminary screen, the 22 selected QSI candidates were screened for their ability to inhibit QS-controlled green fluorescent protein (GFP) expression in the P. aeruginosa lasB-gfp(ASV) strain. Elastase (encoded by the lasB gene) is a virulence factor that is controlled by LasR and therefore a good indicator for LasR activity. […] For ease of identification, each compound was designated a short compound identification code based on its well position in the shipment in place of its standard IUPAC name.
The dose-response curves of these 5 QSI candidates when incubated with the P. aeruginosa PAO1 lasB-gfp(ASV) strain are shown in FIG. 3. GFP expression, which was measured in relative fluorescence units, was normalized by dividing the GFP value by the corresponding OD600 value measured at that time-point. ‘Control’ refers to the PAO1 strain grown without the presence of QSI, and as expected, it had the highest GFP per OD values. For these five compounds, dose-dependent inhibition of lasB-gfp expression was observed, i.e. the higher the concentration of QSI that was present, the greater the inhibition of gfp expression.
IC50 Value Comparisons of the Five QSI Candidates. The slope of the curve for each QSI was calculated based on its respective dose-response curves (from FIG. 3) and plotted against the log inhibitor concentration. The slope is indicative of the biosynthesis rate of GFP due to AHL induction. The half maximal inhibitory concentrations (IC50) of the five QSI candidates were calculated using the Graphpad Prism 6 software package (GraphPad Software Inc., CA, USA).

The subject of test [3] is elastase production by P. aeruginosa PAO1. The experiment in a line: Elastase assay of culture supernatants (EnzChek Elastase Assay Kit). The note with it: 50 and 100 μM, 2 h cultivation. The class given is cell-based. The procedure:
Elastase Assay. P. aeruginosa PAO1 wild-type and an elastase negative lasI rhlI mutant were cultivated in LB medium overnight at 37° C. with shaking. Overnight cultures were 1:100 diluted to 5 ml ABTGC medium and incubator at 37° C. with shaking. Compound G1 was supplemented into the PAO1 cultures at final concentrations of 0, 50, 100 μM respectively. After 2 h incubation, 0.8 mL culture supernatants were sampled by centrifugation (18000 g, 4 min) and filtration through 0.2 micron filters. Elastase activity of P. aeruginosa culture supernatants was measured by using The EnzChekElastase Assay Kit (Invitrogen), which uses BODIPY-FL-labeled DQ elastin conjugate as the substrate of elastase. The BODIPY-FL-labeled DQ elastins conjugate when cleaved by elastase enzyme, yields highly fluorescent fragments. Fluorescence was recorded every 6 min for 180 min by using a Tecan Infinite 200 Pro plate reader (excitation at 490 nm, emission at 520 nm).

As for `N=c1[nH]c(=O)c2nn[nH]c2[nH]1` [Compound G1, 5-imino-4,6-dihydro-3H-1,2,3-triazolo[5,4-d]pyrimidin-7-one], the “inhibition of pqsA-gfp expression” value in test [1] (PAO1 lasR mutant, 50 μM QSI) was 24.4%; in test [1] (wild-type PAO1, 50 μM QSI), 57.5%. The “IC50 of lasB-gfp expression, range in words” value in test [2] (P. aeruginosa PAO1 lasB-gfp(ASV)) is reported as “high nanomolar range”. Moreover, the “effect on cell growth” value in test [2] (P. aeruginosa lasB-gfp(ASV) strain, OD600) is given as “without affecting cell growth”. In addition, the “inhibition of LasR-controlled GFP expression” value in test [2] (P. aeruginosa lasB-gfp(ASV) strain, 0.78125-50 μM) is listed as “inhibit LasR-controlled GFP expression in a dose-dependent manner”. In addition, the IC50 (usually the concentration at which inhibition is half-maximal) in test [2] (Pseudomonas aeruginosa, PAO1, read-out: IC50 of lasB-gfp expression) was determined as 640 nM. The “elastase production (elastase activity of culture supernatants)” value in test [3] is “almost abolish elastase production”.
